{
  "source": "paper PMC6719014",
  "about": "“First-In-Class Inhibitors Targeting the Interaction between Bacterial RNA Polymerase and Sigma Initiation Factor Affect the Viability and Toxin Release of Streptococcus pneumoniae” (Molecules, 2019)",
  "data": [
    {"target": "T1, RNAP CH-σ (B. subtilis RpoC clamp-helix domain and full-length SigA) (Bacillus subtilis, UniProt P37871)", "T1 construct": "RpoC clamp-helix domain 220-315 with SmBiT NanoLuc tag (N-terminal, pCU252); full-length SigA with LgBiT NanoLuc tag (C-terminal, pCU251); purified recombinant; tags kept; with RNA polymerase sigma factor SigA", "test": "split-luciferase (NanoLuc) protein-protein interaction inhibition", "format": "binding", "units": {"IC50": "µM"}, "values": [
      {"smiles": "Nc1ccccc1Sc1ccc(C(=O)c2ccccc2C(=O)O)cc1[N+](=O)[O-]", "note": "[C3-001, 2-(4-((2-Aminophenyl)thio)-3-nitrobenzoyl)benzoic Acid]", "IC50": "6.4 ± 0.71"}
    ]},
    {"target": "T1, RNAP CH-σ (B. subtilis RpoC clamp-helix domain and full-length SigA)", "test": "split-luciferase (NanoLuc) protein-protein interaction inhibition", "format": "biochemical", "remark": "another data set of the same source", "source_text": "split-luciferase (NanoLuc) protein-protein interaction inhibition on RNAP CH-σ (B. subtilis RpoC clamp-helix domain and full-length SigA)", "units": {"inhibition at 10 µM": "%"}, "values": [
      {"smiles": "Nc1ccccc1Sc1ccc(C(=O)c2ccccc2C(=O)O)cc1[N+](=O)[O-]", "note": "[C3-001, 2-(4-((2-Aminophenyl)thio)-3-nitrobenzoyl)benzoic Acid]", "inhibition at 10 µM": "62.2 ± 2.6"},
      {"smiles": "Nc1cccc(Sc2ccc(C(=O)c3ccccc3C(=O)O)cc2[N+](=O)[O-])c1", "note": "[C3-002, 2-(4-((3-Aminophenyl)thio)-3-nitrobenzoyl)benzoic Acid]", "inhibition at 10 µM": "81.3 ± 4.9"},
      {"smiles": "Nc1ccc(Sc2ccc(C(=O)c3ccccc3C(=O)O)cc2[N+](=O)[O-])cc1", "note": "[C3-003, 2-(4-((4-Aminophenyl)thio)-3-nitrobenzoyl)benzoic Acid]", "inhibition at 10 µM": "69.1 ± 10.7"},
      {"smiles": "Nc1cc(Cl)ccc1Sc1ccc(C(=O)c2ccccc2C(=O)O)cc1[N+](=O)[O-]", "note": "[C3-004, 2-(4-((2-Amino-4-chlorophenyl)thio)-3-nitrobenzoyl)benzoic Acid]", "inhibition at 10 µM": "60.5 ± 16.5"},
      {"smiles": "O=C(O)c1ccccc1C(=O)c1ccc(Sc2ccc(Cl)c(Cl)c2)c([N+](=O)[O-])c1", "note": "[C3-005, 2-(4-((3,4-Dichlorophenyl)thio)-3-nitrobenzoyl)benzoic Acid]", "inhibition at 10 µM": "81.7 ± 0.9"}
    ]}
  ]
}
